# What was measured:
# [1] = molecular target: T1, CYP2E1 (Homo sapiens, UniProt P05181); assay: CYP inhibition in HLM: chlorzoxazone 6-hydroxylation; format: in vitro ADME; details: 10 or 50 μM
# T1 construct: tissue Gentest Corp. (Woburn, Mass.); host or cells: pooled human liver microsomes
# Procedure: (§1) The incubations were carried out in test tubes (12.0×75 mm). The incubation mixtures (250 μL) contained 0.5 mg of HLM protein, 50 (CYP1A2 and CYP2E1) or 25 (CYP2C9, CYP2C19, CYP2D6 and CYP3A4) pmol of recombinant human CYPs, Compound 1 (10 or 50 μM), probe substrate (R—, S-warfarin, chlorzoxazone, S-mephenyloin, or bufuralol) at different concentrations, and 0.5 mg of NADPH in 50 mM Tris buffer containing 15 mM MgCl2 (pH 7.4). Compound 1 was added to the reaction mixture 5 minutes prior to the addition of the probe substrate. […]
# (§2) The quantification was based on the calibration curves, and the quality control (QC) samples were applied to ensure the quality of the experiments. […]
# 2. […] 6-hydroxychlorzoxazone was monitored by UV at 280 nm.
# Data were acquired and analyzed by ChemStation (Version 6.03, Hewlett Packard, Waldbronn, Germany) for 6-, 7-, and 10-hydroxywarfarin and 6-hydroxychlorzoxazone, and MacQuan (Version 1.6, PE Biosystem, Foster City, Calif.) for 1′-hydroxybufuralol and 4′-hydroxymephenytoin. Quantification was based on peak area ratios of metabolites over the respective IS against the respective concentration of the metabolites. […] The metabolic rates were determined using Excel (Microsoft Office 97, Microsoft Corporation, Redmond, Wash.) or SigmaPlot (Version 6.00, SPSS Inc. Chicago, Ill.). […]
# [2] = molecular target: CYP3A4 (Homo sapiens, UniProt P08684); assay: CYP inhibition in HLM: R-warfarin 10-hydroxylation; format: in vitro ADME; design: tissue Gentest Corp. (Woburn, Mass.); host or cells: pooled human liver microsomes; details: 10 or 50 μM
# Procedure: as §1, §2
# 1. CYP1A2/2C9/3A4-mediated warfarin 6-, 7-, 8-, and 10-hydroxylation (Zhang et al., Drug Metab. Dispos. 23:1339-1346, 1995; Rettie et al., Chem. Res. Toxicol. 5:54-59, 1992; Brian et al., Biochemistry 29:11280-11292, 1990): Hewlett Packard 1100 HPLC system (Waldbronn, Germany) comprised a binary pump, an autosampler, a column compartment unit, a photodiode array detector (PDA), and a fluorescence detector. […] The warfarin metabolites, 6-, 8-, and 10-hydroxywarfarin, were monitored by UV at 313 nm, and 7-hydroxywarfarin by fluorescence at Ex320 nm/Em380 nm. […]
# T1 sequence (P05181 whole entry): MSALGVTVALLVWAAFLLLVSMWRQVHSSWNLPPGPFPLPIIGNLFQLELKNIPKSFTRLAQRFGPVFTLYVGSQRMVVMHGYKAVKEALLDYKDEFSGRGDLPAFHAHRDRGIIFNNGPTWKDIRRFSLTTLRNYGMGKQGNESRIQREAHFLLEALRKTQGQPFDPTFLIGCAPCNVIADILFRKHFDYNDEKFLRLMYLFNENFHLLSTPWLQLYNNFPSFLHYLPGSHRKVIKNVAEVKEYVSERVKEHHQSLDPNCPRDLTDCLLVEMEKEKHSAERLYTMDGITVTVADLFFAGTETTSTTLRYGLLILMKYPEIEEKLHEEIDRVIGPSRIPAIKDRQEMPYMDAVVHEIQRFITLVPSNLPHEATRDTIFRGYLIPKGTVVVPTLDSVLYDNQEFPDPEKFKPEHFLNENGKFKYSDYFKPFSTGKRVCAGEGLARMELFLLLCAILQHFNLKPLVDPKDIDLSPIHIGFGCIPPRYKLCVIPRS
# Sequence of CYP3A4 (P08684 whole entry): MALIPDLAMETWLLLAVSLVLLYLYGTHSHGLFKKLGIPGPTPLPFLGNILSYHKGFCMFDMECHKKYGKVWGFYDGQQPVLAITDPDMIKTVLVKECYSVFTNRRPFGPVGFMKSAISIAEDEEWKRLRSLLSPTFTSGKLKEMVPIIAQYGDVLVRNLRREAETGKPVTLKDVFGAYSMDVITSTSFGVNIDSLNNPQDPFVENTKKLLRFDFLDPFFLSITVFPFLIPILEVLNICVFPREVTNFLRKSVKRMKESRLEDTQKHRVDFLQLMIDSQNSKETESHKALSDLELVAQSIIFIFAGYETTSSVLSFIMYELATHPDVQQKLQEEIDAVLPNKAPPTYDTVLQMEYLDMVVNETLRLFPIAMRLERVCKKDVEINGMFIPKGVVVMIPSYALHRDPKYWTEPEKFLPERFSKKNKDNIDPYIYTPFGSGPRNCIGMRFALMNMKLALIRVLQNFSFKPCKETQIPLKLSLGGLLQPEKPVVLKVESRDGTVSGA
smiles,measurement,setting,value
"CNC(=O)Cc1ccc2ccn(C3CCN(CCc4ccccc4F)CC3)c2c1 [Compound 1, N-methyl-[1-[1-(2-fluorophenethyl)piperidine-4-yl]-1H-indol-6-yl] acetamide]",inhibitory effect on CYP2E1 activity (in words),[1],no inhibitory effect
same,inhibitory effect on CYP3A4 activity (in words),[2],no inhibitory effect

# — US20050033056A1, “Hydroxylated indole derivatives and uses thereof” (priority 2001, published 2005)
